Converted amounts (≈) assume the structure as drawn.
Key:
[1] = system: Mycobacterium tuberculosis; test: Antimycobacterial activity against extensively drug resistant Mycobacterium tuberculosis H37Rv; type: functional
[2] = system: Mycobacterium tuberculosis; test: Antimycobacterial activity against multidrug resistant Mycobacterium tuberculosis H37Rv; type: functional
[3] = system: Mycobacterium tuberculosis; test: Potentiation of ethionamide induced antibacterial activity against Mycobacterium tuberculosis W4-E1 harboring EthA Gly343Ala mutant expressing GFP incubated for 5 days by fluorescence based analysis; type: functional, organism-based
[4] = system: Mycobacterium tuberculosis; test: Antimycobacterial activity against rifampicin resistant Mycobacterium tuberculosis by broth dilution method; type: functional
[5] = system: Mycobacterium tuberculosis; test: Antimycobacterial activity against isoniazid, rifampicin, amikacin and moxifloxacin resistant Mycobacterium tuberculosis by broth dilution method; type: functional
[6] = system: Mycobacterium tuberculosis; test: Antimycobacterial activity against isoniazid and rifampicin resistant Mycobacterium tuberculosis by broth dilution method; type: functional

SMILES | EC50 [3] [nM] | MIC [4] [µg/mL] | MIC [5] [µg/mL] | MIC [6] [µg/mL] | also measured
CC(=O)N1N=C(c2ccc3oc(-c4ccc(O)cc4)nc3c2)CC1c1cccs1 (stereo not drawn) | – | – | – | – | MIC [1]: 12.5 µg/mL (≈ 31 µM); MIC [2]: 3.12 µg/mL (≈ 7.73 µM)
O=C(CCC(F)(F)F)N1CCC(F)(c2ccnc(Cl)c2)CC1 | < 1300 | – | – | – | –
NC(=O)N1N=C(c2ccc3oc(N)nc3c2)CC1c1cccs1 (stereo not drawn) | – | – | – | – | MIC [1]: 50 µg/mL (≈ 153 µM); MIC [2]: 12.5 µg/mL (≈ 38.2 µM)
Cc1cc(-c2cn(C[C@@]3(C)Cn4cc([N+](=O)[O-])nc4O3)nn2)ccc1F | – | 1 (≈ 2.79 µM) | 2 (≈ 5.58 µM) | 4 (≈ 11.2 µM) | –
O=C(CCC(F)(F)F)N1CC(C2CCCCC2)C1 | < 75 | – | – | – | –
O=C(CCC(F)(F)F)N1CCC(F)(c2ccnc(F)c2)CC1 | < 1300 | – | – | – | –
Cc1ccc(OCc2cn(C[C@@]3(C)Cn4cc([N+](=O)[O-])nc4O3)nn2)cc1 | – | 8 (≈ 21.6 µM) | 8 (≈ 21.6 µM) | 2 (≈ 5.4 µM) | –
CC(=O)N1N=C(c2ccc3oc(N)nc3c2)CC1c1cccs1 (stereo not drawn) | – | – | – | – | MIC [1]: 25 µg/mL (≈ 76.6 µM); MIC [2]: 6.25 µg/mL (≈ 19.1 µM)
CC(=O)N1N=C(c2ccc3oc(NC(=O)c4ccccc4)nc3c2)CC1c1cccs1 (stereo not drawn) | – | – | – | – | MIC [1]: 50 µg/mL (≈ 116 µM); MIC [2]: 12.5 µg/mL (≈ 29 µM)
CCc1ccc(OCc2cn(C[C@@]3(C)Cn4cc([N+](=O)[O-])nc4O3)nn2)cc1 | – | 4 (≈ 10.4 µM) | 4 (≈ 10.4 µM) | 2 (≈ 5.2 µM) | –
O=C(CCC(F)(F)F)N1CCC(F)(c2cncc(Cl)c2)CC1 | < 1300 | – | – | – | –
C[C@]1(Cn2cc(CN3CCOCC3)nn2)Cn2cc([N+](=O)[O-])nc2O1 | – | 2 (≈ 5.72 µM) | 2 (≈ 5.72 µM) | 2 (≈ 5.72 µM) | –
Cc1cccc(OCc2cn(C[C@@]3(C)Cn4cc([N+](=O)[O-])nc4O3)nn2)c1 | – | 1 (≈ 2.7 µM) | 2 (≈ 5.4 µM) | 1 (≈ 2.7 µM) | –
CC(=O)N1N=C(c2ccc3oc(NC(=O)CCl)nc3c2)CC1c1cccs1 (stereo not drawn) | – | – | – | – | MIC [1]: 12.5 µg/mL (≈ 31 µM); MIC [2]: 3.12 µg/mL (≈ 7.74 µM)
O=C(CCC(F)(F)F)N1CCC2(CC1)CC(Br)=NO2 | < 140 | – | – | – | –
Cc1ccc(OCCc2cn(C[C@@]3(C)Cn4cc([N+](=O)[O-])nc4O3)nn2)cc1 | – | 1 (≈ 2.6 µM) | 0.25 (≈ 0.65 µM) | 0.25 (≈ 0.65 µM) | –
Cc1ccc(SCc2cn(C[C@@]3(C)Cn4cc([N+](=O)[O-])nc4O3)nn2)cc1 | – | 0.25 (≈ 0.647 µM) | 2 (≈ 5.18 µM) | 0.5 (≈ 1.29 µM) | –
C[C@]1(Cn2cc(-c3ccc(C(F)(F)F)cc3)nn2)Cn2cc([N+](=O)[O-])nc2O1 | – | 4 (≈ 10.1 µM) | 2 (≈ 5.07 µM) | 2 (≈ 5.07 µM) | –
O=C(CCC(F)(F)F)N1CC(c2cccc(Cl)c2)C1 | < 75 | – | – | – | –

SMILES | EC50 [3] [nM] | MIC [4] [µg/mL] | MIC [5] [µg/mL] | MIC [6] [µg/mL] | also measured
O=C(CCC(F)(F)F)N1CCC(F)(c2cncc(C(F)(F)F)c2)CC1 | < 1300 | – | – | – | –
CC(=O)N1N=C(c2ccc3oc(S)nc3c2)CC1c1cccs1 (stereo not drawn) | – | – | – | – | MIC [1]: > 100 µg/mL; MIC [2]: 25 µg/mL (≈ 72.8 µM)
C[C@]1(Cn2cc(-c3ccc(F)cc3)nn2)Cn2cc([N+](=O)[O-])nc2O1 | – | 2 (≈ 5.81 µM) | 2 (≈ 5.81 µM) | 2 (≈ 5.81 µM) | –
O=C(CCC(F)(F)F)N1CCC(F)(c2cc(C(F)(F)F)ccn2)CC1 | < 1300 | – | – | – | –
COC1=NOC2(CCN(C(=O)CCCl)CC2)C1 | < 140 | – | – | – | –
O=C(CCCl)N1CCC2(CC1)CC(C(F)(F)F)=NO2 | < 140 | – | – | – | –
CCC1=NOC2(CCN(C(=O)CCC(F)(F)F)CC2)C1 | < 140 | – | – | – | –
O=C(CCC(F)(F)F)N1CCC(c2ccnc(Cl)c2)CC1 | < 1300 | – | – | – | –
CCOC1=NOC2(CCN(C(=O)CCC(F)(F)F)CC2)C1 | < 140 | – | – | – | –
O=C(CCC(F)(F)F)N1CCC2(CC1)CC(OCC(F)(F)F)=NO2 | < 140 | – | – | – | –
O=C(CCC(F)(F)F)N1CCC(c2cnc(F)c(F)c2)CC1 | < 1300 | – | – | – | –
C[C@]1(Cn2cc(COc3cccc(F)c3)nn2)Cn2cc([N+](=O)[O-])nc2O1 | – | 2 (≈ 5.34 µM) | 2 (≈ 5.34 µM) | 2 (≈ 5.34 µM) | –
CCCOC1=NOC2(CCN(C(=O)CCC(F)(F)F)CC2)C1 | < 140 | – | – | – | –
CCCCCCOC1=NOC2(CCN(C(=O)CCC(F)(F)F)CC2)C1 | < 140 | – | – | – | –
O=C(CCC(F)(F)F)N1CCC(c2ncc(F)cc2F)CC1 | < 1300 | – | – | – | –
C[C@]1(Cn2cc(-c3ccc(F)cc3F)nn2)Cn2cc([N+](=O)[O-])nc2O1 | – | 4 (≈ 11 µM) | 4 (≈ 11 µM) | 1 (≈ 2.76 µM) | –
O=C(CCCC(F)(F)F)N1CCC(c2cncc(Cl)c2)CC1 | < 1300 | – | – | – | –
C[C@]1(Cn2cc(-c3ccc(OC(F)(F)F)cc3)nn2)Cn2cc([N+](=O)[O-])nc2O1 | – | 2 (≈ 4.87 µM) | 1 (≈ 2.44 µM) | 2 (≈ 4.87 µM) | –
O=C(CCC(F)(F)F)N1CCC(c2cncc(Cl)c2)C1 (stereo not drawn) | < 1300 | – | – | – | –

Source: ChEMBL document CHEMBL5244273, “Tuberculosis: An Overview of the Immunogenic Response, Disease Progression, and Medicinal Chemistry Efforts in the Last Decade toward the Development of Potential Drugs for Extensively Drug-Resistant Tuberculosis Strains” (J Med Chem, 2021)
